{
  "source": "patent US8080264B2",
  "about": "“Natural composition for curing hepatitis-B, methods for making the same and pharmaceutical formulations thereof” (Himalaya Global Holdings Ltd., priority 2004, dated 2011)",
  "tested_on": "HepG2 cells",
  "assay": "Hepatoprotective effects in vitro against TBH oxidative damage",
  "conditions": "MTT, TBH challenge",
  "data": [
    {"smiles": "CC(C)(C)OO", "note": "[TBH, Tertiary Butyl Hydro peroxide]", "values": [
      {"measurement": "Survival (%)", "result": 52.53, "unit": "%"}
    ]}
  ]
}
